How the values were obtained:
[1] = biological target: Glutamate receptor ionotropic AMPA (Homo sapiens, UniProt P42261+P42262+P42263+P48058); experiment: Compound was evaluated for its binding affinity towards Ionotropic glutamate receptor AMPA in presence of [3H]- AMPA; assay type: protein-complex assay
[2] = biological target: Glutamate receptor ionotropic, NMDA 1 (Rattus norvegicus, UniProt P35439); experiment: Compound was evaluated for its binding affinity towards strychnine - insensitive glycine site of NMDA receptor in presence of [3H]- Gly

SMILES	IC50 [1]	IC50 [2]
CCCCn1c(=O)c(=O)[nH]c2cc(Cl)c(Cl)cc21	–	> 100 µM
CCn1c(=O)c(=O)[nH]c2cc(Cl)c(Cl)cc21	21 µM	96 µM
O=c1[nH]c2ccccc2n2ccnc12	–	> 100 µM
O=c1[nH]c2ccccc2n2nnnc12	–	> 100 µM

Now those with a lower IC50 [2], led by results:

IC50 [1]	IC50 [2]	SMILES
> 100 µM	77 µM	Oc1nc2cc(Cl)c(Cl)cc2n2nnnc12
36 µM	17 µM	Cn1c(=O)c(=O)[nH]c2cc(Cl)c(Cl)cc21
8 µM	7 µM	Oc1nc2cc(Cl)c(Cl)cc2n2cnnc12
7 µM	6 µM	Oc1nc2cc(Cl)c(Cl)cc2n2ccnc12
27 µM	4 µM	Oc1nc2cc(Cl)c(Cl)cc2nc1O [2,3-DIHYDROXY-6,7-DICHLOROQUINOXALINE]

— ChEMBL document CHEMBL1125973, “Tricyclic quinoxalines as ligands for the strychnine-insensitive glycine site” (Bioorg Med Chem Lett, 1991)
